Consider 15 compounds from US8664217B2, “Benzodiazepine compound and pharmaceutical composition” (Otsuka Pharmaceutical Co., Ltd., priority 2008, dated 2014).

For this test, the target named is T1, human GIRK1/4 channels (Homo sapiens, UniProt P48544+P48549).
T1 construct: Full-length human GIRK1 cDNA was cloned from HuH cell- and HeLa cell-derived cDNA libraries; Full-length GIRK4 cDNA was amplified from a human heart cDNA library; expressed in transfected cells; host or cells: FLP-IN-CHO cells (Invitrogen)
T1 sequence (P48549 1-501): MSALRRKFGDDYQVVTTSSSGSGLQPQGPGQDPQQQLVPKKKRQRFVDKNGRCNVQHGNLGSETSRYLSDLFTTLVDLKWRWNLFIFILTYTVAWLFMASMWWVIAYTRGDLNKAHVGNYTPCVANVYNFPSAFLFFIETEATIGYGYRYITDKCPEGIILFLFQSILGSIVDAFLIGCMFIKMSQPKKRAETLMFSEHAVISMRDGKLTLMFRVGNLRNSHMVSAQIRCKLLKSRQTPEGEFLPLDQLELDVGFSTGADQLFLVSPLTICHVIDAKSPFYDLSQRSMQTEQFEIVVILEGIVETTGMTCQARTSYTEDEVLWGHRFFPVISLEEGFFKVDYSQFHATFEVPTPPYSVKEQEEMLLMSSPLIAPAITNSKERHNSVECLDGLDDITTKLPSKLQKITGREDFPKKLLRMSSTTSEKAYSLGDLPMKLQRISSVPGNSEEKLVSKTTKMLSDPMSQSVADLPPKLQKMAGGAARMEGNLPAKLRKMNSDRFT
T1 sequence (P48544 1-419): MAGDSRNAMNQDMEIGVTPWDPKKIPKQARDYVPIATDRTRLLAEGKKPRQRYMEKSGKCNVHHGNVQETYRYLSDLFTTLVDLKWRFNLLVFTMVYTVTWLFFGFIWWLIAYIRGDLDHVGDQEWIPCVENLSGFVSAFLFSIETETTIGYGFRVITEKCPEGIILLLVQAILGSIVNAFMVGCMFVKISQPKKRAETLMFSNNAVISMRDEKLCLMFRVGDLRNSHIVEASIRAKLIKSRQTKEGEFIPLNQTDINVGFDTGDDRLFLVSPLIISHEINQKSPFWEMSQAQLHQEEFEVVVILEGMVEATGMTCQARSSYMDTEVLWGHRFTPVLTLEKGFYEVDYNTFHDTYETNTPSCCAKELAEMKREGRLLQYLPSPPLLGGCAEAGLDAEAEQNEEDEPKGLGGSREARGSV
The test is described as follows: Measurement of human GIRK1/4 channel current by whole-cell patch clamp method (human GIRK1/4-expressing CHO cell line). The test is classed as cell-based. The method, then:
(2) Production of CHO Cell Line Expressing Human GIRK1/4
CHO cell lines stably expressing human GIRK1/4 channels were prepared in the following manner.
Full-length human GIRK1 cDNA was cloned from HuH cell- and HeLa cell-derived cDNA libraries. Full-length GIRK4 cDNA was amplified from a human heart cDNA library (produced by Clontech Laboratories, Inc.) by PCR using synthetic primers shown in Table 1, and cloned into the Eco-RI restriction enzyme site of pCR-Blunt (produced by Invitrogen Corporation) or into the HincII site of pUC118 (produced by Takara Bio, Inc.).
The obtained human GIRK1 and GIRK4 cDNA sequences correspond to known sequences (NCBI database: GIRK1 (NM_002239) and GIRK4 (NM_000890) respectively). The obtained GIRK1 and GIRK4 cDNA sequences were cloned into the Eco-RI restriction enzyme site of pCR-Blunt (available from Invitrogen Corporation) or into the HincII site of pUC118 (available from Takara Bio, Inc.). A GIRK4 expression vector was constructed by insertion into the BamHI-XhoI site of pcDNA5/FRT. A GIRK1 expression vector was constructed by insertion into the KpnI-XhoI site of pcDNA3.1(+) or pCAG_neo. FLP-IN-CHO cells (produced by Invitrogen Corporation) were transfected with human GIRK1 and GIRK4 expression vectors by using Lipofectamine 2000 (produced by Invitrogen Corporation) according to the protocol enclosed with the reagent or using an electronic induction method (“Nucleofector Kit-T”, produced by Amaxa). First, the cells transfected with the GIRK4 expression vector were cultured in a 10% serum-containing F12 medium (produced by Sigma) supplemented with 600 μg/ml of hygromycin in an incubator with 5% carbon dioxide at 37° C. Then the cells expressing GIRK4 were transfected with the GIRK1 expression vector and were cultured in 10% serum-containing F12 medium supplemented with 350 μg/ml of G418 and 600 μg/ml of hygromycin in an incubator with 5% carbon dioxide at 37° C. to select GIRK1/4 expressing cell lines. Cell populations whose growth was observed after about 2 weeks were isolated using cloning rings, and the obtained single colonies were proliferated. RNA was extracted from single colonies, and single-stranded cDNA was synthesized by a cDNA synthesis kit (produced by Invitrogen Corporation), and the amount of expression was quantified at the mRNA level by real-time PCR (Applied Biosystems, Ltd.). Finally, the expressed current was analyzed by patch clamp method described below. The cell lines expressing a current of 500 pA or more per cell were selected as channel-expressing cell lines for activity measurement by patch clamping method.
(4) Measurement of Ion Channel Current by Patch Clamp Method (Human GIRK1/4-Expressing CHO-K1 Cell Line)
An experiment was carried out using a patch clamp setup at room temperature (20 to 26° C.). A perfusion chamber having a diameter of 20 mm (flow rate: about 5 ml/min) was mounted on the stage of a phase-contrast inverted microscope (produced by Nikon Corporation) placed on a vibration isolation table. A poly-L-lysine (produced by Sigma)-coated coverslip (diameter: 15 mm, produced by Matsunami Glass Ind., Ltd.) on which human GIRK1/4-expressing cells were cultured was placed in the perfusion chamber.
Hyperpolarizing stimulation pulses were applied and ionic current was recorded using a patch clamp amplifier (EPC-7 or EPC-7 PLUS, manufactured by HEKA) and a personal computer (manufactured by IBM Corp.) in which software for data acquisition and analysis of ion channel current (PULSE 8.77, manufactured by HEKA) was installed. The current was measured in the whole-cell configuration of the patch-clamp technique. The tip (resistance: 2 to 4 MΩ) of a borosilicate glass pipette (produced by Sutter Instrument Co.) was gently placed on the cell membrane by using a three-dimensional mechanical micromanipulator (produced by Shoshin EM Corporation). […] Subsequently, stronger suction was applied to break the cell membrane. […]
On the technique in general: In patch-clamp work, channel activity is measured electrically.

Where [1] appears, read: whole-cell patch clamp, human GIRK1/4-expressing CHO cells, step end current at −120 mV, test compound 0.1, 1, 10 μM, read-out: GIRK¼ IC50.

Where a name gives a salt, the structure may show the parent alone. Read-outs that look alike come from different tables or passages of the source.

The IC50 is the concentration that inhibits the measured activity by half. On to `CCN1C(=O)C(C)(C)C(=O)N(C)c2cc(OCCCN(CCc3cccnc3)Cc3ccccc3-c3cccnc3)ccc21` [Example 242], for which the IC50 under setting [1] is 220 nM. On the same count and under the same terms, the value for `CCN1C(=O)C(C)(C)C(=O)N(C)c2cc(OCCCN(CCn3c(=O)ccc4ccccc43)Cc3ccncc3)ccc21` [Example 63, 1-ethyl-3,3,5-trimethyl-7-(3-{[2-(2-oxo-2H-quinolin-1-yl)ethyl]pyridin-4-ylmethylamino}propoxy)-1,5-dihydrobenzo[b][1,4]diazepine-2,4-dione] was 920 nM. The same measure, in the same setting: the value for `CCN1C(=O)C(C)(C)C(=O)N(C)c2cc(OCCCN(CCn3ccc4occc4c3=O)Cc3ccc(C)nc3C)ccc21` [Example 629, 7-(3-{(2,6-dimethylpyridin-3-ylmethyl)-[2-(4-oxo-4H-furo[3,2-c]pyridin-5-yl)ethyl]amino}propoxy)-1-ethyl-3,3,5-trimethyl-1,5-dihydrobenzo[b][1,4]diazepine-2,4-dione dihydrochloride] was 170 nM; that for `CCN1C(=O)C(C)(C)C(=O)N(C)c2cc(OCCCN(CCn3ccc4oc(C)cc4c3=O)Cc3cnccc3C)ccc21` [Example 573, 1-ethyl-3,3,5-trimethyl-7-{3-[[2-(2-methyl-4-oxo-4H-furo[3,2-c]pyridin-5-yl)ethyl]-(4-methylpyridin-3-ylmethyl)amino]propoxy}-1,5-dihydrobenzo[b][1,4]diazepine-2,4-dione] was 1500 nM; that for `CCN1C(=O)C(C)(C)C(=O)N(CC)c2cc(OCCCN(CCc3cccnc3)Cc3ccncc3)ccc21` [Example 14, 1,5-diethyl-3,3-dimethyl-7-{3-[(2-pyridin-3-ylethyl)pyridin-4-ylmethylamino]propoxy}-1,5-dihydrobenzo[b][1,4]diazepine-2,4-dione trihydrochloride] was 720 nM. On the same count and under the same terms, the result for `CCCN1C(=O)C(C)(C)C(=O)N(C)c2cc(OCCCN(CCc3cccnc3)Cc3ccncc3)ccc21` [Example 10, 3,3,5-trimethyl-1-propyl-7-{3-[(2-pyridin-3-ylethyl)pyridin-4-ylmethylamino]propoxy}-1,5-dihydrobenzo[b][1,4]diazepine-2,4-dione trihydrochloride] reads 3600 nM; that for `CCCc1ncccc1CN(CCCOc1ccc2c(c1)N(C)C(=O)C(C)(C)C(=O)N2CC)CCn1ccc2oc(C)cc2c1=O` [Example 611, 1-ethyl-3,3,5-trimethyl-7-{3-[[2-(2-methyl-4-oxo-4H-furo[3,2-c]pyridin-5-yl)ethyl]-(2-propylpyridin-3-ylmethyl)amino]propoxy}-1,5-dihydrobenzo[b][1,4]diazepine-2,4-dione dihydrochloride], 370 nM; that for `CN1C(=O)C(C)(C)C(=O)N(C)c2cc(OCCCN(CCc3cccnc3)Cc3ccncc3)ccc21` [Example 19, 1,3,3,5-tetramethyl-7-{3-[(2-pyridin-3-ylethyl)pyridin-4-ylmethylamino]propoxy}-1,5-dihydrobenzo[b][1,4]diazepine-2,4-dione trihydrochloride], 1400 nM. Regarding `CN(CCN(CCCOc1ccc2c(c1)N(C)C(=O)C(C)(C)C(=O)N2C)Cc1ccncc1)C(=O)c1ccccc1` [Example 45, N-methyl-N-(2-{pyridin-4-ylmethyl-[3-(1,3,3,5-tetramethyl-2,4-dioxo-2,3,4,5-tetrahydro-1H-benzo[b][1,4]diazepin-7-yloxy)propyl]amino}ethyl)benzamide dihydrochloride], the IC50 under setting [1] was 2150 nM. Still for that read-out and setting: the result for `CCN1C(=O)C(C)(C)C(=O)N(C)c2cc(OCCCN(CCc3cccnc3)C(=O)c3ccccc3)ccc21` [Example 633, N-[3-(1-ethyl-3,3,5-trimethyl-2,4-dioxo-2,3,4,5-tetrahydro-1H-benzo[b][1,4]diazepin-7-yloxy)propyl]-N-(2-pyridin-3-ylethyl)benzamide hydrochloride] reads 8400 nM; that for `CCN1C(=O)C(C)(C)C(=O)N(C)c2cc(OCCCN(CCn3ccc4ccoc4c3=O)Cc3ccc(C#N)cc3)ccc21` [Example 380], 490 nM. On to `CCN1C(=O)C(C)(C)C(=O)N(C)c2cc(OCCCN(CCn3ccc4ccccc4c3=O)Cc3ccsc3)ccc21` [Example 125], for which it took 91 nM to reach half-maximal inhibition (IC50).

As to `CCN1C(=O)C(C)(C)C(=O)N(C)c2cc(OCCCN(CCn3ccc4ccsc4c3=O)Cc3ccncc3)ccc21` [Example 68, 1-ethyl-3,3,5-trimethyl-7-(3-{[2-(7-oxo-7H-thieno[2,3-c]pyridin-6-yl)ethyl]pyridin-4-ylmethylamino}propoxy)-1,5-dihydrobenzo[b][1,4]diazepine-2,4-dione], the IC50 under setting [1] was 5100 nM. Take `CCN1C(=O)C(C)(C)C(=O)N(C)c2cc(OCCCN(CCn3ccc4sccc4c3=O)Cc3cccnc3)ccc21` [Example 568, 1-ethyl-3,3,5-trimethyl-7-(3-{[2-(4-oxo-4H-thieno[3,2-c]pyridin-5-yl)ethyl]pyridin-3-ylmethylamino}-propoxy)-1,5-dihydrobenzo[b][1,4]diazepine-2,4-dione]: the IC50 under setting [1] amounted to 50 nM. For `Cc1ccccc1CN(CCCOc1ccc2c(c1)N(C)C(=O)C(C)(C)C(=O)N2C)CCc1cccnc1` [Example 50, 1,3,3,5-tetramethyl-7-{3-[(2-methylbenzyl)-(2-pyridin-3-ylethyl)amino]propoxy}-1,5-dihydrobenzo[b][1,4]diazepine-2,4-dione dihydrochloride], the IC50 under setting [1] amounted to 460 nM.
